Legend:
[1] = system: TGFβ/Smad Signaling Pathway SBE Reporter—HEK293 Cell Line; assay: TGFβ/Smad SBE reporter luciferase assay in HEK293 cells stimulated with human TGFβ1; format: cell-based; conditions: 4 h compound, then TGFβ1 20 ng/ml ~18 h
Experimental: • 1. TGFβ/Smad Signaling Pathway SBE Reporter—HEK293 Cell Line BPS Bioscience Catalog #: 60653 • 2. Human TGFβ1 (BPS Bioscience #90900-1) • 3. SIS3 (Sigma #S0447): inhibitor of TGFβ pathway. Prepare stock soln. in DMSO • 4. Growth medium: MEM medium (Invitrogen #11095-080)+10% FBS (ATCC #30-2020)+1% non-essential amino acids (Lonza #13-114E)+1 mM Na pyruvate (Lonza #13-115E)+1% Penicillin/Streptomycin (ATCC #30-2300)+400 μg/ml of Geneticin (Invitrogen #11811-031) • 5. Assay medium: MEM medium+0.5% FBS+1% non-essential amino acids+1 mM Na pyruvate+1% Pen/Strep • 6. 96-well tissue culture-treated white clear-bottom assay plate (Corning #3610) • 7. ONE-Step™ Luciferase Assay System (BPS, Cat. #60690)
SBE reporter-HEK293 cells were harvested from culture in growth medium and seeded at a density of ˜10,000 cells per well into a white clear-bottom 96-well microplate in 100 μl of assay medium. The plate containing cells was incubated at 37° C. in a CO2 incubator. 24 h after seeding, cells were washed with 100 μL of assay buffer and treated with three-fold serial dilution of compounds in 50 μl assay medium. […]
After 18 h of incubation, Luciferase assay was performed using ONE-Step™ Luciferase Assay System according to the protocol provided: 50 μl of ONE-Step™ Luciferase reagent was added per well and shook at room temperature for […]. Luminescence was measured using a luminometer.

[2] = Body weight of tumor bearing mice in the B16-F10 syngeneic model; format: in vivo, C57BL/6 mice
Experimental: • Animal species and strain: C57BL/6 mice • History of treatment: Naive • Sex, age and weight: Female, 6-8 weeks • Breeder/supplier: Shanghai SLAC Laboratory Animal Co. Ltd • Adaptation: At least 7 days • Room: SPF Room • Room temperature: 20-26° C. • Room relative humidity: 40-70% • Light cycle: Fluorescent light for 12-hour light (08:00-20:00) and 12-hour dark • Animal hosting: 2-5 mice/cage each group • Food: Free access to food • Water: Free access to water (municipal tap water filtered by reverse osmosis or high-pressure sterilizer)
B16-F10 cells (3×10^5 in 100 μL of serum-free medium) were inoculated to each of C57BL/6 mice via s.c. under anesthesia by 3-4% isoflurane. Each group contains 15 mice.
When average tumor volume reached 35-60 mm^3, 15 mice were randomized into group 6. The day of inoculation was denoted as day 0.
Body weight was measured on Day 4, 5, 6, 8, 11, 13, 15 and 18 after inoculation. When required, body weight was measured daily.
Results were expressed as mean±S.E.M. Comparisons between two groups were made by Dunnett's multi-comparison test, p<0.05 were considered as significant.

[3] = Solubility in DMSO; format: physicochemical
[4] = 10 mg/kg q.d. * 3W i.p., Day 11
[5] = 10 mg/kg q.d. * 3W i.p., Day 13
[6] = 10 mg/kg q.d. * 3W i.p., Day 15
[7] = 10 mg/kg q.d. * 3W i.p., Day 18
[8] = 30 mg/kg q.d. * 3W i.p., Day 11
[9] = 30 mg/kg q.d. * 3W i.p., Day 13
[10] = 30 mg/kg q.d. * 3W i.p., Day 15
[11] = 30 mg/kg q.d. * 3W i.p., Day 18

Structure (SMILES) | Body weight (g) Mean ([2]; 10 mg/kg q.d. * 3W i.p., Day 1) | Body weight (g) Mean ([2]; 10 mg/kg q.d. * 3W i.p., Day 4) | Body weight (g) Mean ([2]; 10 mg/kg q.d. * 3W i.p., Day 5) | Body weight (g) Mean ([2]; 10 mg/kg q.d. * 3W i.p., Day 6) | Body weight (g) Mean ([2]; 10 mg/kg q.d. * 3W i.p., Day 8) | Body weight (g) Mean [2, 4] | Body weight (g) Mean [2, 5] | Body weight (g) Mean [2, 6] | Body weight (g) Mean [2, 7] | Body weight (g) Mean ([2]; 30 mg/kg q.d. * 3W i.p., Day 1) | Body weight (g) Mean ([2]; 30 mg/kg q.d. * 3W i.p., Day 4) | Body weight (g) Mean ([2]; 30 mg/kg q.d. * 3W i.p., Day 5) | Body weight (g) Mean ([2]; 30 mg/kg q.d. * 3W i.p., Day 6) | Body weight (g) Mean ([2]; 30 mg/kg q.d. * 3W i.p., Day 8) | Body weight (g) Mean [2, 8] | Body weight (g) Mean [2, 9] | Body weight (g) Mean [2, 10] | Body weight (g) Mean [2, 11] | other results
COc1cc2c(cc1OC)CN(C(=O)/C=C/c1c(-c3ccccc3)nc3ccccn13)CC2 [Compound 8, (E)-1-(6,7-dimethoxy-3,4-dihydroisoquinolin-2(1H)-yl)-3-(2-phenylimidazo[1,2-a]pyridin-3-yl)prop-2-en-1-one] | 16.73 g | 16.41 g | 16.26 g | 16.21 g | 16.67 g | 17.33 g | 17.51 g | 18.85 g | 21.26 g | 16.70 g | 16.54 g | 16.32 g | 16.18 g | 16.60 g | 17.36 g | 17.78 g | 18.73 g | 20.93 g | IC50 ([1]; Homo sapiens): 3.53 µM; Body weight (g) Mean ([2]; 100 mg/kg q.d. * 3W i.p. (group 6), Day 11): 17.20 g; Body weight (g) Mean ([2]; 100 mg/kg q.d. * 3W i.p. (group 6), Day 13): 17.95 g; Body weight (g) Mean ([2]; 100 mg/kg q.d. * 3W i.p. (group 6), Day 15): 18.78 g; Body weight (g) Mean ([2]; 100 mg/kg q.d. * 3W i.p. (group 6), Day 18): 21.82 g; Body weight (g) Mean ([2]; 100 mg/kg q.d. * 3W i.p. (group 6, randomized at tumor volume 35-60 mm^3), Day 8): 17.36 g; soluble in DMSO [3]: soluble
COc1cc2c(cc1OC)CN(C(=O)/C=C/c1c(-c3ccccc3)n(C)c3ncccc13)CC2.Cl [SIS3, reference compound] | 16.72 g | 16.64 g | 16.55 g | 16.50 g | 16.83 g | 17.53 g | 17.84 g | 19.04 g | 20.77 g | 16.72 g | 16.66 g | 16.55 g | 16.59 g | 16.69 g | 17.30 g | 17.53 g | 18.45 g | 20.70 g | IC50 [1]: 2.96 µM
